Results taken from PMC7915026, “Sulfaguanidine Hybrid with Some New Pyridine-2-One Derivatives: Design, Synthesis, and Antimicrobial Activity against Multidrug-Resistant Bacteria as Dual DNA Gyrase and DHFR Inhibitors” (Antibiotics, 2021).
≈ marks a conversion by molar mass, not a printed value. Read-outs that look alike come from different tables or passages of the source.

Tests used:
[1] = system: E. coli ATCC BAA-196; assay: Inhibition zone against multidrug-resistant bacteria; format: cell-based; details: MDRB E. coli ATCC BAA-196
Description: (§1) Norfloxacin was used as a positive control for the multidrug resistance study.
(§2) The antimicrobial activity performed at the bacteriology laboratory, Botany and Microbiology Department, Faculty of Science, Al-Azhar University, Cairo, Egypt. The inhibition zone (IZ) of the tested derivatives expressed as the diameter (mm) according to the agar plate diffusion method.

[2] = system: P. aeruginosa ATCC BAA-2111; assay: as above; format: cell-based; details: MDRB P. aeruginosa ATCC BAA-2111
Description: as §1, §2

[3] = system: S. aureus ATCC 33591; assay: as above; format: cell-based; details: MDRB S. aureus ATCC 33591
Description: as §1, §2

[4] = system: S. aureus ATCC 43300; assay: as above; format: cell-based; details: MDRB S. aureus ATCC 43300
Description: as §1, §2

[5] = system: E. coli ATCC BAA-196; assay: MIC and MBC against multidrug-resistant strains; format: cell-based; details: E. coli ATCC BAA-196
Description: as §1
(§3) The experiment was repeating for three-times.

[6] = system: P. aeruginosa ATCC BAA-2111; assay: MIC and MBC against multidrug-resistant strains; format: cell-based; details: P. aeruginosa ATCC BAA-2111
Description: as §1, §3

[7] = system: S. aureus ATCC 33591; assay: MIC and MBC against multidrug-resistant strains; format: cell-based; details: Staphylococcus aureus, ATCC33591, S. aureus ATCC 33591; for MBC: read-out: MBC; for MIC: read-out: MIC
Description: as §1, §3

[8] = system: S. aureus ATCC 43300; assay: MIC and MBC against multidrug-resistant strains; format: cell-based; details: Staphylococcus aureus, ATCC43300, S. aureus ATCC 43300; for MBC: read-out: MBC; for MIC: read-out: MIC
Description: as §1, §3

[9] = system: MDRB strains; assay: MIC and MBC, ranges over the MDRB panel; format: cell-based; details: four MDRB strains
Description: as §1, §3

[10] = system: B. subtilis ATCC 6633; assay: Inhibition zone, paper disk/agar diffusion; format: cell-based; details: B. subtilis; Na = no activity
Description: as §2

[11] = system: C. albicans (ATCC 10231); assay: Inhibition zone, paper disk/agar diffusion; format: cell-based; details: Na = no activity
Description: as §2

[12] = system: E. coli ATCC 25922; assay: Inhibition zone, paper disk/agar diffusion; format: cell-based; details: E. coli; Na = no activity
Description: as §2

[13] = system: E. faecalis ATCC 29212; assay: Inhibition zone, paper disk/agar diffusion; format: cell-based; details: E. faecalis; Na = no activity
Description: as §2

[14] = system: F. oxysporum (RCMB 008002); assay: Inhibition zone, paper disk/agar diffusion; format: cell-based; details: Na = no activity
Description: as §2

[15] = system: P. aeruginosa ATCC 27853; assay: Inhibition zone, paper disk/agar diffusion; format: cell-based; details: P. aeruginosa; Na = no activity
Description: as §2

[16] = system: S. aureus ATCC 29213; assay: Inhibition zone, paper disk/agar diffusion; format: cell-based; details: S. aureus; Na = no activity
Description: as §2

[17] = system: S. typhi ATCC 6539; assay: Inhibition zone, paper disk/agar diffusion; format: cell-based; details: S. typhi; Na = no activity
Description: as §2

[18] = system: B. subtilis ATCC 6633; assay: MIC and MBC determination; format: cell-based; details: Bacillus subtilis, ATCC6633, B. subtilis
[19] = system: S. aureus ATCC 29213; assay: MIC and MBC determination; format: cell-based; details: Staphylococcus aureus, ATCC29213, S. aureus
[20] = system: E. faecalis ATCC 29212; assay: MIC and MBC determination; format: cell-based; details: Enterococcus faecalis, ATCC29212, E. faecalis
[21] = system: E. coli ATCC 25922; assay: MIC and MBC determination; format: cell-based; details: Escherichia coli, ATCC25922, E. coli
[22] = system: P. aeruginosa ATCC 27853; assay: MIC and MBC determination; format: cell-based; details: Pseudomonas aeruginosa, ATCC27853, P. aeruginosa
[23] = system: Salmonella typhi (S. typhi ATCC 6539); assay: microbe, parasite or virus in culture; format: cell-based; details: Salmonella enterica, Salmonella typhi
[24] = system: C. albicans (ATCC 10231); assay: MIC and MFC determination; format: cell-based
[25] = system: F. oxysporum (RCMB 008002); assay: MIC and MFC determination; format: cell-based
[26] = target: S. aureus DNA gyrase (Staphylococcus aureus, UniProt P0A0K8+P20831); assay: In vitro DNA gyrase supercoiling enzymatic assay; format: biochemical
[27] = system: spleen and thymus; assay: In vivo immunomodulation: immune organ weight and indexes; parameters: Spleen index: unit not given here; details: mice
Description: Both the spleen and thymus have important antibacterial and fungal immune organ responses, and any change in weight, and indexes can reflect the level of immune regulation. Additionally, the relative spleen and thymus indexes are important indices for nonspecific immunity and potential immunomodulatory compounds that increase the spleen and thymus weight. This increase is due to immune cells’ stimulation in the spleen and thymus. […]

[28] = system: CD4+ and CD8+ T lymphocytes; assay: In vivo T lymphocyte subsets from peripheral blood, flow cytometry; details: mice
Description: Activation of immune cells as CD4^+ and CD8^+ T cells is one possible mechanism of a drug’s immune stimulus activity. An increase in these cells is thought to be a good indicator of an active immune response to infections. So, our work extended to study the effect of the most promising derivatives (2d, 8, and 11) on T lymphocyte subsets (CD4^+ and CD8^+) from peripheral blood, and determined the relative level in model mice that analyzed by flow cytometry after the period of treating.
In vitro intracellular killing activities for the most promising six derivatives 2a, 2b, 2d, 3a, 8, and 11 were performed according to reported methods.

[29] = Escherichia coli, ATCCBAA196, read-out: MBC
[30] = Escherichia coli, ATCCBAA196, read-out: MIC
[31] = Pseudomonas aeruginosa, ATCCBAA2111, read-out: MBC
[32] = Pseudomonas aeruginosa, ATCCBAA2111, read-out: MIC

Chain of S. aureus DNA gyrase (P20831 whole entry): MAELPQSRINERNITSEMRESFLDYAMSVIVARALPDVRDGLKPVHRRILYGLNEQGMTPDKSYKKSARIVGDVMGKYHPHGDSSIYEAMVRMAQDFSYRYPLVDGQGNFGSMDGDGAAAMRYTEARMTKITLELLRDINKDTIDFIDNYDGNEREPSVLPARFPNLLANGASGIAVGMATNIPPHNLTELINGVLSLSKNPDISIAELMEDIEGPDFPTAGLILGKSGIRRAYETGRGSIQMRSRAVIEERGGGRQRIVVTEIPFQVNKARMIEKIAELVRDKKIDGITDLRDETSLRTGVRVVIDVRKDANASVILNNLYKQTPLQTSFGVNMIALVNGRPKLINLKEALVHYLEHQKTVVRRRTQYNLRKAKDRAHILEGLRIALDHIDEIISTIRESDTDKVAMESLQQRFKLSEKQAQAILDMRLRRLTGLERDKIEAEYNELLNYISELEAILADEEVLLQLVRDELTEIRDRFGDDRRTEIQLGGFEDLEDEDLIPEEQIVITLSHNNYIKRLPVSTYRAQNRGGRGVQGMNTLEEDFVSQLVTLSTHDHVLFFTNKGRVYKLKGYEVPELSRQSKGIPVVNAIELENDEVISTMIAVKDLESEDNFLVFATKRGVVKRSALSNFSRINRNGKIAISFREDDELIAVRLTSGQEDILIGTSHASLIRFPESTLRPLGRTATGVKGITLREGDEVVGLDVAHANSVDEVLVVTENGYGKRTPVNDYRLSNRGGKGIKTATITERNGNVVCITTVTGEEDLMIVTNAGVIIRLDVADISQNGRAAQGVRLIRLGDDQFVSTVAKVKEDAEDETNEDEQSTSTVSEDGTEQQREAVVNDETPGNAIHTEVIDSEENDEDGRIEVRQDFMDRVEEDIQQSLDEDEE
Chain of S. aureus DNA gyrase (P0A0K8 whole entry): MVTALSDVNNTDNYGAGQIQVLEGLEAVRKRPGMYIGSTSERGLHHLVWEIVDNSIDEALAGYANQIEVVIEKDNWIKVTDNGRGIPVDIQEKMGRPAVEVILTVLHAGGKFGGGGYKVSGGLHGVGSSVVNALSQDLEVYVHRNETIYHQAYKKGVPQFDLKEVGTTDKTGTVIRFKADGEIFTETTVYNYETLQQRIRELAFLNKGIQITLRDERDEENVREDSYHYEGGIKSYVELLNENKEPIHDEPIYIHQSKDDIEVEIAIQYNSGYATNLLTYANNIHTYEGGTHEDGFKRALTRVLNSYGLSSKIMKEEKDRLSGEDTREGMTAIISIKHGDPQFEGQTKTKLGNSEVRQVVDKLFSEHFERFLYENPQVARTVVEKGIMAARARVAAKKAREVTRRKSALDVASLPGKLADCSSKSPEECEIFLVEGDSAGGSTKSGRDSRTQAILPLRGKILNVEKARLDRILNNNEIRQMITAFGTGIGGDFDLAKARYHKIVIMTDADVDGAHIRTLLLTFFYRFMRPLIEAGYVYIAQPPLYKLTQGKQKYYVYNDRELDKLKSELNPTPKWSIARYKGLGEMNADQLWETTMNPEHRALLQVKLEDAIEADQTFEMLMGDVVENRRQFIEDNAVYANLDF

With CCn1cc(C(=O)O)c(=O)c2cc(F)c(N3CCNCC3)cc21 [Norfloxacin, reference compound] the “Mean Diameter of Inhibition Zone” value [1] was 27 ± 0.98 mm, the “Mean Diameter of Inhibition Zone” value [2] was 24 ± 0.47 mm and the “Mean Diameter of Inhibition Zone” value [3] was 26 ± 0.5 mm. The “Mean Diameter of Inhibition Zone” value [4] was 25 ± 0.5 mm, the MBC ([5]; listed as Nor.) was 8.32 ± 0.47 µM (≈ 2.66 µg/mL) and the MIC ([5]; listed as Nor.) was 4.91 ± 0.69 µM (≈ 1.57 µg/mL). It also gave an MBC [5, 29] of 8.32 µM (≈ 2.66 µg/mL), an MIC [5, 30] of 4.91 µM (≈ 1.57 µg/mL) and an MBC ([6]; listed as Nor.) of 16.65 ± 0.19 µM (≈ 5.32 µg/mL). The MIC ([6]; listed as Nor.) was 9.80 ± 0.41 µM (≈ 3.13 µg/mL), the MBC [6, 31] was 16.6 µM (≈ 5.32 µg/mL) and the MIC [6, 32] was 9.8 µM (≈ 3.13 µg/mL). The MBC [7] was 4.38 ± 0.49 µM (≈ 1.4 µg/mL), the MIC [7] was 2.44 ± 0.45 µM (≈ 0.779 µg/mL) and the MBC [8] was 7.82 ± 0.32 µM (≈ 2.5 µg/mL). The MIC [8] was 3.91 ± 0.21 µM (≈ 1.25 µg/mL), the MBC range [9] was 4.38 to 16.65 µM and the MIC range [9] was 2.44 to 9.80 µM.

In the case of N=C(N)NS(=O)(=O)c1ccc(NC(=O)c2cc3ccccc3oc2=N)cc1 [Compound 11, N-(4-(N-Carbamimidoylsulfamoyl)phenyl)-2-imino-2H-chromene-3-carboxamide], the “Mean Diameter of the Inhibition Zone” value [10] is reported as 28 ± 0.11 mm, the “Mean Diameter of the Inhibition Zone” value [11] is reported as 22 ± 0.21 mm and the “Mean Diameter of the Inhibition Zone” value [12] is reported as 25 ± 0.43 mm. The “Mean Diameter of the Inhibition Zone” value [13] was 29± 0.54 mm, the “Mean Diameter of the Inhibition Zone” value [14] was 18 ± 0.45 mm and the “Mean Diameter of the Inhibition Zone” value [15] was 24 ± 0.13 mm. For the same compound, the “Mean Diameter of the Inhibition Zone” value [16] was 24 ± 0.29 mm, the “Mean Diameter of the Inhibition Zone” value [17] was 18 ± 0.36 mm and the MBC ([18]; read-out: MBC) was 17.2 ± 0.54 µM (≈ 6.63 µg/mL). For the same compound, the MIC ([18]; read-out: MIC) was 10.1 ± 0.68 µM (≈ 3.9 µg/mL), the MBC ([19]; read-out: MBC) was 40.5 ± 1.02 µM (≈ 15.6 µg/mL) and the MIC ([19]; read-out: MIC) was 20.3 ± 0.67 µM (≈ 7.81 µg/mL). For the same compound, the MBC ([20]; read-out: MBC) was 81.1 ± 0.98 µM (≈ 31.2 µg/mL), the MIC ([20]; read-out: MIC) was 40.5 ± 0.74 µM (≈ 15.6 µg/mL) and the MBC ([21]; read-out: MBC) was 40.5 ± 0.75 µM (≈ 15.6 µg/mL). It also gave an MIC ([21]; read-out: MIC) of 20.3 ± 0.36 µM (≈ 7.81 µg/mL), an MBC ([22]; read-out: MBC) of 144 ± 1.47 µM (≈ 55.5 µg/mL) and an MIC ([22]; read-out: MIC) of 72 ± 0.96 µM (≈ 27.8 µg/mL). It also gave an MBC ([23]; read-out: MBC) of 94.7 ± 0.79 µM (≈ 36.5 µg/mL), an MIC ([23]; read-out: MIC) of 48 ± 0.85 µM (≈ 18.5 µg/mL) and an MFC/MIC [24] of under 2. For the same compound, the MFC ([24]; Candida albicans, ATCC10231, read-out: MFC) was 45.6 ± 0.47 µM (≈ 17.6 µg/mL), the MIC ([24]; Candida albicans, ATCC10231, read-out: MIC) was 24 ± 0.41 µM (≈ 9.25 µg/mL) and the MFC/MIC [25] was under 2. The MFC ([25]; Fusarium oxysporum, RCMB008002, read-out: MFC) was 145.9 ± 1.25 µM (≈ 56.2 µg/mL), the MIC ([25]; Fusarium oxysporum, RCMB008002, read-out: MIC) was 81.08 ± 0.54 µM (≈ 31.2 µg/mL) and the “Mean Diameter of Inhibition Zone” value [1] was 19 ± 0.88 mm. For the same compound, the “Mean Diameter of Inhibition Zone” value [2] was 23 ± 0.25 mm, the “Mean Diameter of Inhibition Zone” value [3] was 22 ± 0.65 mm and the “Mean Diameter of Inhibition Zone” value [4] was 17 ± 0.3 mm. For the same compound, the MBC [5, 29] was 48 ± 0.81 µM (≈ 18.5 µg/mL), the MIC [5, 30] was 24 ± 0.49 µM (≈ 9.25 µg/mL) and the MBC [6, 31] was 81.1 ± 0.86 µM (≈ 31.2 µg/mL). It also gave an MIC [6, 32] of 40.5 ± 0.74 µM (≈ 15.6 µg/mL), an MBC [7] of 19.2 ± 0.65 µM (≈ 7.41 µg/mL) and an MIC [7] of 10.1 ± 0.29 µM (≈ 3.9 µg/mL). It also gave an MBC [8] of 81.1 ± 0.85 µM (≈ 31.2 µg/mL), an MIC [8] of 40.52 ± 0.36 µM (≈ 15.6 µg/mL) and an IC50 [26] of 39.4 ± 1.15 µM. It also gave a Spleen index [27] of 0.008 ± 0.00, a Spleen weight [27] of 190 ± 0.074 mg and a Thymus index [27] of 0.455 ± 0.07 mg/g. For the same compound, the Thymus weight [27] was 13.67 ± 0.53 mg, the “T cells CD4+” value [28] was 75.20 ± 0.97% and the “T cells CD8+” value [28] was 24.05 ± 0.32%.
